What was measured:
Experiment in all cases: relative viability (nuclei count vs DMSO), 5 days (fraction); higher = more cells survive
[1] = compound: CN1CCC(CNc2ccc3ncc(-c4cccc(OC(F)(F)F)c4)n3n2)CC1 [SGI-1776] + O=C(CCCCCCC(=O)Nc1ccccc1)NO [Vorinostat] (partner 1 µM)
Procedure, shortened: (§1)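 Relative viability was taken as the ratio of nuclei in treated wells to nuclei in vehicle wells. Lung cancer cell lines in 1536-well plates received compounds by pin tool one day after seeding, either one drug alone or a fixed anchor-drug dose plus five library-drug doses (not always all listed) in √10 steps. Nuclei were counted on 4× images after 5 days of treatment, and values are medians of duplicate plates.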

[2] = compound: C1COCCN1C2=NC(=NC3=C2OC4=C3C=CC=N4)C5=CC(=CC=C5)NC(=O)C6=CN=C(C=C6)N + Cc1nc(NC(=O)N2CCC[C@H]2C(N)=O)sc1-c1ccnc(C(C)(C)C(F)(F)F)c1 [Alpelisib] (partner 2 µM)
Procedure, shortened: as §1

[3] = compound: CN1CCC(CNc2ccc3ncc(-c4cccc(OC(F)(F)F)c4)n3n2)CC1 [SGI-1776] + CC(=O)Nc1cccc(-n2c(=O)n(C3CC3)c(=O)c3c(Nc4ccc(I)cc4F)n(C)c(=O)c(C)c32)c1 [Trametinib] (partner 0.02 µM)
Procedure, shortened: as §1

[4] = compound: Nc1ccccc1NC(=O)c1ccc(CNC(=O)OCc2cccnc2)cc1 [Entinostat] + Cc1nc(Nc2ncc(C(=O)Nc3c(C)cccc3Cl)s2)cc(N2CCN(CCO)CC2)n1 [Dasatinib] (partner 0.075 µM)
Procedure, shortened: as §1

## EPLC-272H
[1]; first compound 0.08 µM
  relative viability: 0.468
[1]; first compound 0.8 µM
  relative viability: 0.505
[1]; first compound 2.53 µM
  relative viability: 0.545
[1]; first compound 8 µM
  relative viability: 0.249
[2]; first compound 0.02 µM
  relative viability: 0.972
[2]; first compound 0.06325 µM
  relative viability: 0.883
[2]; first compound 0.2 µM
  relative viability: 0.974
[2]; first compound 0.6325 µM
  relative viability: 0.967
[2]; first compound 2 µM
  relative viability: 0.673
[3]; first compound 0.08 µM
  relative viability: 0.288
[3]; first compound 0.8 µM
  relative viability: 0.282
[3]; first compound 2.53 µM
  relative viability: 0.307
[3]; first compound 8 µM
  relative viability: 0.282
[4]; first compound 0.02 µM
  relative viability: 0.364
[4]; first compound 0.06325 µM
  relative viability: 0.417
[4]; first compound 0.2 µM
  relative viability: 0.289
[4]; first compound 0.6325 µM
  relative viability: 0.195
[4]; first compound 2 µM
  relative viability: 0.2

## NCI-H2228
[1]; first compound 0.08 µM
  relative viability: 0.613
[1]; first compound 0.8 µM
  relative viability: 0.884
[1]; first compound 2.53 µM
  relative viability: 0.679
[1]; first compound 8 µM
  relative viability: 0.429
[2]; first compound 0.02 µM
  relative viability: 0.737
[2]; first compound 0.06325 µM
  relative viability: 0.707
[2]; first compound 0.2 µM
  relative viability: 0.66
[2]; first compound 0.6325 µM
  relative viability: 0.493
[2]; first compound 2 µM
  relative viability: 0.317
[3]; first compound 0.08 µM
  relative viability: 0.591
[3]; first compound 0.8 µM
  relative viability: 0.487
[3]; first compound 2.53 µM
  relative viability: 0.52
[3]; first compound 8 µM
  relative viability: 0.35
[4]; first compound 0.02 µM
  relative viability: 0.446
[4]; first compound 0.06325 µM
  relative viability: 0.358
[4]; first compound 0.2 µM
  relative viability: 0.3
[4]; first compound 0.6325 µM
  relative viability: 0.208
[4]; first compound 2 µM
  relative viability: 0.126

From the supplement of paper PMC10307832
